Reference: US5597715A, “7,42-Bis(O-demethyl)rapamycin” (SmithKline Beecham p.l.c., priority 1993, dated 1997)

Test system: Spleen cells
Experiment: Mitogenesis Assay for Immunosuppressive Activity (Concanavalin A, 3H-thymidine)
Type: cell-based, BDF1 female mice
Settings: Mus musculus; Concanavalin A 5 μg/ml, 72 hours, 3H-thymidine last 18 hours
Method: Spleen cells for BDF1 female mice were established in RPMI with 10% fetal calf serum at 5×10^6 /mL. One hundred […] of this suspension (5×10^5 cells) were dispensed into 96-well round-bottomed microtiter plates (Linbro, Flow Laboratories). Concanavalin A (5 μg/ml) was added as the mitogenic stimulus, and the final volume in the microtiter wells was adjusted to 200 μL with RPMI. Cell cultures were incubated for 72 hours at 37° C. in a 5% CO2 atmosphere and pulsed with 0,5 μCi ^3 H-thymidine (specific activity […]) for the last 18 hours of the 72 hours culture. The cells were harvested on an automated multiple sample harvester and cell-associated radioactivity counted in a Beckman liquid scintillation counter. The results were expressed as the mean values derived from quadruplicate measurements. Cell viability was determined by trypan blue exclusion after 72 hours of incubation. Compounds to be tested were added to the microtiter plates at the appropriate dilutions prior to the addition of cells.

IC50: 0.01 to 0.13 µM
SMILES: COC1C(=O)C(C)CC(C)C=CC=CC=C(C)C(O)CC2CCC(C)C(O)(O2)C(=O)C(=O)N2CCCCC2C(=O)OC(C(C)CC2CCC(O)C(O)C2)CC(=O)C(C)C=C(C)C1O (stereo not shown) [7,42-Bis(O-demethyl)rapamycin]
